One data set deals with humans. Conditions: in vivo, iv; cited from earlier work.
A short description of data set [1]: Compatibility of lipid triglycerides with HXM solubilization and phospholipid emulsion.
Data set [2] is described as follows: Solubility of HXM in pure triglycerides. Conditions: organic solvent or mixture. The class given is physicochemical.
For data set [3] the following is noted: cited from earlier work.

Structures can show the parent of a compound that is named as a salt.

Take `CN(C)c1nc(N(C)C)nc(N(C)C)n1` [Gentisate salt of HXM]: in the data set on humans, the local irritation entry is listed as “severe local irritation”.

`CCCCCCCC/C=C\CCCCCCCC(=O)OCC(COC(=O)CCCCCCC/C=C\CCCCCCCC)OC(=O)CCCCCCC/C=C\CCCCCCCC` [triolein]: the “ability of triglyceride to solubilize HXM” value in data set [1] is “ineffective at solubilizing HXM”.

In the case of `CN(C)c1nc(N(C)C)nc(N(C)C)n1` [HXM, 2,4,6-Tris(dimethylamino)-s-triazine], the solubility (as a rule, how much of the substance goes into solution per volume) in data set [2] was over 50000 µg/mL. In addition, the “solubility of the free drug in saline solution” value in data set [3] (saline solution, Wickes et al. 1985) was 70 µg/mL. For the same compound, the “solubility of the free drug in water” value in data set [3] (water, Ames et al. 1982) was 200 µg/mL.

The record behind these values is patent US4963363A, “Phospholipid delivery vehicle for aqueous-insoluble active ingredients” (priority 1989, dated 1990).
